In brackets after ≈: the same amount, converted by molar mass. Read-outs that look alike come from different tables or passages of the source.
Key:
[1] = tested on: Escherichia coli ATCC 25922; experiment: Agar disc diffusion; details: for Zone of inhibition: E. coli, disc loaded with about 0.01mg; for zone of inhibition at 10 µg/disc: Escherichia coli, ATCC25922
Method: (§8) Staphylococcus aureus ATCC 6538, Escherichia coli ATCC 25922, Candida albicans ATCC 10231and Aspergillus niger NRRL-A326 were supplied from Culture Collection Center. The antimicrobial activity of A. terreus extract and 1–4 was investigated by the agar disc diffusion method (Abdel-Wareth et al. [2019]). Nutrient agar (bacteria and yeast) and PDA (fungi) plates were seeded with 0.1 mL of 10^5–10^6 cells/mL then the filter paper discs (0.5 cm) were loaded with about 0.01mg from the extract and compounds, and put on the inoculated agar or PDA plates surface and stayed for 2–4 h at 4°C to reach maximum diffusion. After that, incubation of the plate at 30°C for 24 and 48 h for bacteria and fungi, respectively, to permit maximum growth then the inhibition zone diameter was measured in millimeters (mm). Experiments were carried out in triplicate.

[2] = tested on: Aspergillus niger NRRL-A326; experiment: Agar disc diffusion; details: for Zone of inhibition: A. niger, disc loaded with about 0.01mg; for zone of inhibition at 10 µg/disc: Aspergillus niger, NRRLA326
Method: as §8

[3] = tested on: Staphylococcus aureus ATCC 6538; experiment: Agar disc diffusion; details: disc loaded with about 0.01mg; for Zone of inhibition: S. aureus; for zone of inhibition at 10 µg/disc: Staphylococcus aureus, ATCC6538, S. aureus
Method: as §8

[4] = tested on: Candida albicans ATCC 10231; experiment: Agar disc diffusion; details: disc loaded with about 0.01mg; for Zone of inhibition: C. albicans; for zone of inhibition at 10 µg/disc: Candida albicans, ATCC10231, C. albicans
Method: as §8

[5] = target: ACE2/Spike (RBD) protein interaction (Homo sapiens, UniProt Q9BYF1); experiment: ACE2: SARS-CoV-2 spike inhibitor screening colorimetric assay; format: binding
Chain of ACE2/Spike (RBD) protein interaction (Q9BYF1 18-740): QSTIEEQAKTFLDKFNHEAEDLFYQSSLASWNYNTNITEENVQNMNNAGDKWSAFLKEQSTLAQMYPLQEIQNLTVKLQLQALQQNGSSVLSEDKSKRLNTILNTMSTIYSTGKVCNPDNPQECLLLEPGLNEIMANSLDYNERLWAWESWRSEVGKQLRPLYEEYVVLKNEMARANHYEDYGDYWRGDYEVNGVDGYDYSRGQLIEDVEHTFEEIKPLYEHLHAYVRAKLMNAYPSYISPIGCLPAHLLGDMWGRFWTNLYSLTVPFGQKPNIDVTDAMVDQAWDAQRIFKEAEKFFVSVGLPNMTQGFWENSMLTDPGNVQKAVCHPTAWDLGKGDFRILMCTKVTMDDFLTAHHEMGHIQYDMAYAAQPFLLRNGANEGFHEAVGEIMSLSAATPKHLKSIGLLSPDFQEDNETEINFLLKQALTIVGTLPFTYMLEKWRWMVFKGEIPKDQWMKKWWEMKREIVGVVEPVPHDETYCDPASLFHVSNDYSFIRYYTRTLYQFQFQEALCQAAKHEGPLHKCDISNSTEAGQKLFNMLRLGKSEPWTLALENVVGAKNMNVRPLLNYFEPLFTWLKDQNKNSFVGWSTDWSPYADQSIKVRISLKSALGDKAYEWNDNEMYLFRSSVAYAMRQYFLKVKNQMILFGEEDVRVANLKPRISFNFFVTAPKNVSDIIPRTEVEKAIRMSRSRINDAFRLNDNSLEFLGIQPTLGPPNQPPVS

IL-6 [6] = experiment: LPS-induced inflammatory model, IL-6 level by ELISA; format: cell-based, Murine; details: LPS (500 ng/mL)-induced RAW 264.7, sample at ¼ IC50, ELISA of medium; LPS control 227.50 ± 29.2
Method: (§1) Murine macrophage cells (RAW 264.7), supplied by American Type Culture Collection (ATCC), were grown on Dulbecco′s Modified Eagle Medium (DMEM), accompanied with 10%, […] and 100 μg/mL from bovine serum, penicillin, and streptomycin respectively. After that, cells were incubated in a CO2 atmosphere (5%, 37 °C) then they sub-cultured every 2 days and the cells of the exponential phase were used all over the procedure.
(§2) RAW 264.7 cells (1.8 × 10^5 cells/mL) were seeded for 18 h in a 24-well plate having DMEM medium (1 mL). […] Then, LPS (Sigma-Aldrich Cat No: L2630) (500 ng/mL, LPS control) was added to all treated and untreated wells to induce the inflammatory process. After incubation for 24 h, the media were taken and frozen till analysis. The untreated wells represented the LPS control group.
(§3) TNF- α quantitative assay ELISA kit (Abcam, ab181421 Human TNF alpha Simple Step) and Il-6 quantitative assay ELISA kit (Abcam, Ab178013 Human IL-6 Simple Step) were used to quantify IL-6 and TNF- α levels in the cell culture medium following the manufacturer′s instructions (Afshari et al. [2005]).

MTT cell viability = format: cell-based, Murine; details: mouse, RAW 264.7 cells
Method: as §1
(§4) In vitro cytotoxicity assay kit MTT-based was purchased from Sigma- Aldrich, MTT cat No: M-5655, MTT solubilization solution: M-8910). RAW 264.7 cells (10,000/well) were plated in a 96-well plate then the test compounds (1–4) and the extract were diluted by a serial dilution technique (1000–4 μg/mL) were introduced and the plate was placed in a CO2 incubator (37 °C for 24 h). The cells were washed by DMEM and incubated with MTT solution (40 μL, 4 h). DMSO (180 μL) was used to solubilize the crystals of formazan and the produced color was measured at λ570 nm. The results were normalized against the control and the cell viability percentage was estimated as follows: %Cell viability=(Absorbance of sample/Absorbance of control)x100.

TNF-α [7] = experiment: RT-PCR, TNF-α mRNA expression in LPS-stimulated RAW 264.7 cells; format: cell-based, Murine; details: LPS-induced RAW 264.7, compared to LPS control
Method: as §2
(§5) RAW 264.7 cells were washed two times and then harvested in PBS (1 mL). Total RNA from the stimulated RAW 264.7 cells was extracted utilizing Qiagen RNA extraction (Qiagen, MD, USA) following the instructions of the procedure. cDNA was synthesized by iScript cDNA synthesis kit (Bio-Rad Laboratories Pty. Ltd, Gladesville, Australia). Rotorgene RT-PCR system (QIAGEN, Germany) was used for PCR amplification using BioRad cyber green PCR MMX (Bio-Rad Laboratories Pty. Ltd, Gladesville, Australia). The primers used for the amplification of IL-6, TNF-α, and β-actin genes are represented in Additional file 1: Table S4.
(§6) The Formula 2^−(ΔΔCt) was used to calculate the relative fold change between samples and control.

TNF-α [8] = experiment: LPS-induced inflammatory model, TNF-α level by ELISA; format: cell-based, Murine; details: LPS (500 ng/mL)-induced RAW 264.7, sample at ¼ IC50, ELISA of medium; LPS control 452.5 0 ± 46.1
Method: as §1, §2, §3

S. aureus = experiment: MIC and MBC, resazurin microplate dilution; format: cell-based, Staphylococcus aureus
Method: (§7) The tested strains were cultivated in 100 mL bottles at 35 °C for 24 h on Mueller Hinton medium (Sigma-Aldrich, Germany). Bacteria and fungi cells (pellet) were collected by centrifugation at 5000 rpm, 4 °C, and under aseptic conditions, then washed with sterile saline till the supernatant became clear. […] Duplicate plates were prepared and incubated (37 °C, 18-24 h). The lowest concentration at which the color is changed is the MIC data, while MBC has been calculated by streaking two concentrations higher than MIC showing no growth ([…] et al. [2007]).

C. albicans = experiment: MIC and MBC, resazurin microplate dilution; format: cell-based, Candida albicans
Method: as §7

IL-6 [9] = experiment: RT-PCR, IL-6 mRNA expression in LPS-stimulated RAW 264.7 cells; format: cell-based, Murine; details: LPS-induced RAW 264.7, compared to LPS control
Method: as §2, §5, §6

RAW 264.7 cells = experiment: MTT cell viability; format: cell-based, Murine; details: 24 h
Method: as §1, §4

[10] = RAW 264.7 macrophage cells, read-out: IC50 mean ± SD (cytotoxic effect)
[11] = RAW 264.7 macrophage cells, value given in µM, read-out: IC50 (cytotoxic effect) (converted)
[12] = read-out: IC50 mean ± SD (cytotoxic effect)
[13] = value given in µM, read-out: IC50 (cytotoxic effect) (converted)

| Molecule | Zone of inhibition [1] | Zone of inhibition [2] | Zone of inhibition [3] | Zone of inhibition [4] | zone of inhibition at 10 µg/disc [1] | IC50 ([5]; tested 5–50 µg/mL, triplicates) | IC50 ([5]; value given in µM) | IL-6, mean ± SD (IL-6 [6]) | IC50 at 24 h (MTT cell viability; [10]) | IC50 at 24 h (MTT cell viability; [11]) | zone of inhibition at 10 µg/disc [2] | TNF-α mean ± SD (TNF-α [8]) | zone of inhibition at 10 µg/disc [3] | zone of inhibition at 10 µg/disc [4] | IC50 at 24 h (MTT cell viability; [12]) | IC50 at 24 h (MTT cell viability; [13]) | IC50 mean ± SD (cytotoxic effect) (RAW 264.7 cells) | other results |
| --- | --- | --- | --- | --- | --- | --- | --- | --- | --- | --- | --- | --- | --- | --- | --- | --- | --- | --- |
| C[C@@H]1C[C@@H]([C@H](O)CC2CC(=O)NC(=O)C2)C(=O)[C@@H](C)C1 [Cyclohexamide, reference compound] | 0 mm | 29 mm | 0 mm | 0 mm | – | – | – | – | – | – | – | – | – | – | – | – | – | – |
| CCC/C=C\C/C=C\CCCCC(=O)OCC(COC(=O)CCCC/C=C\C/C=C\CCC)OC(=O)CCCC/C=C\CCCCC [Compound 1, 1,3-di-(6Z,9Z)-trideca-6,9-dienoyl-2-(6Z) dodec-6-enoyl glycerol] | – | – | – | – | 0 mm | 16 µM | 15.8 µM | 51.63 ± 2.79 pg/mL | 858 µg/mL | 1290 µM | 0 mm | 68.220 ± 3.09 pg/mL | 0 mm | 0 mm | – | – | – | expression of TNF-α mRNA (TNF-α [7]): most activity |
| CSC(O)(N1C(=O)CNC(=O)C1Cc1c[nH]c2ccccc12)N1C(=O)CC(=O)N2C(=O)c3cc(O)ccc3CC21 (stereo not shown) [Compound 4, asterrine] | – | – | 25 mm | 15 mm | 0 mm | 15.1 µM | 15.1 µM | 129.00 ± 1.77 pg/mL | 449 ± 25.2 µg/mL | 797 µM | 0 mm | 268.30 ± 3.43 pg/mL | 19 to 25 mm | 11 to 22 mm | – | – | – | MBC (S. aureus; S. aureus): 250 µg/mL (≈ 444 µM); MBC (S. aureus; Staphylococcus aureus, S. aureus, read-out: MBC): 250 µg/mL (≈ 444 µM); MIC (S. aureus; Staphylococcus aureus, S. aureus, read-out: MIC): 125 µg/mL (≈ 222 µM); MIC (C. albicans; C. albicans): 250 µg/mL (≈ 444 µM); MBC (C. albicans; Candida albicans, C. albicans, read-out: MBC): 500 µg/mL (≈ 887 µM); MIC (C. albicans; Candida albicans, C. albicans, read-out: MIC): 250 µg/mL (≈ 444 µM) |
| COC(=O)[C@]1(Cc2ccc(O)c(CC=C(C)C)c2)OC(=O)C(O)=C1c1ccc(O)cc1 [Compound 2, butyrolactone I] | – | – | 19 mm | 11 mm | 0 mm | 29.4 µM | 29.5 µM | 37.25 ± 0.87 pg/mL | – | – | 0 mm | 87.97 ± 6.7 pg/mL | 19 to 25 mm | 11 to 22 mm | 718 µg/mL | 1690 µM | 718.7 ± 40.4 µg/mL (≈ 1690 µM) | MBC (S. aureus; Staphylococcus aureus): 250 µg/mL (≈ 589 µM); MIC (S. aureus; Staphylococcus aureus): 250 µg/mL (≈ 589 µM); expression of IL-6 mRNA (IL-6 [9]): best inhibitory activity; MBC (C. albicans; Candida albicans): 250 µg/mL (≈ 589 µM); MIC (C. albicans; Candida albicans): 250 µg/mL (≈ 589 µM) |
| Neomycin [reference compound] | 8 mm | 0 mm | 21 mm | 23 mm | – | – | – | – | – | – | – | – | – | – | – | – | – | – |
| COC(=O)[C@]1(Cc2ccc(O)c(CC3OC3(C)C)c2)OC(=O)C(O)=C1c1ccc(O)cc1 (stereo partly shown) [Compound 3, butyrolactone III] | – | – | – | – | 0 mm | 21.6 µM | 21.6 µM | – | – | – | 0 mm | – | 0 mm | 0 mm | 246 µg/mL | 561 µM | 246.8 ± 13.9 µg/mL (≈ 560 µM) | – |

Reference: PMC10547674, “Bioactive metabolites identified from Aspergillus terreus derived from soil” (AMB Express, 2023)
